# Results from patent US5389621A, “Method of enhancing the anticoagulant effects of aspirin using salicylamide” (University of Medicine and Dentistry of New Jersey, priority 1994, dated 1995).
# Legend:
# platelet cyclooxygenase = experiment: Thromboxane B2 synthesis by arachidonic acid-stimulated platelet-rich plasma in vitro; type: cell-based, male Sprague-Dawley rats; conditions: ASA/SA 1:1 w/w, TX B2
# Text: Was done manually by the method of Brecher and Conkite (1953) using phase contrast microscopy (Balplan) with a 40×annulus, 40×phase objective, and 10×ocular (total of 400×), and a special platelet counting chamber (American Optical Corp., Buffalo, N.Y.) and dilution with 1% ammonium oxalate. The platelet-rich plasma (PRP) was adjusted by dilution with platelet-poor plasma (PPP) to give a final count of 1×10^9 platelets/ml.
# Arachidonic acid (as the sodium salt, >99.0% pure) was obtained from Sigma Chemical Co. and a stock solution of 34.5 mM was prepared by dissolving in isotonic saline. 20 μl of the stock solution were added to 440 μl of PRP (400 μl of PRP and 20 or 40 μl of treatment solution ±20 μl of saline) to make a 23 fold dilution. The final concentration of AA in PRP was 1.5 mM.
# EDTA solution was prepared by adding 2 gm disodium EDTA and 0.8 gm NaCl and were adjusted to pH 7.4 with NaOH and made up to a final volume of 100 ml in distilled water. ASA solution was prepared by dissolving 30 mg in 10 ml of isotonic saline to make a solution of 3 mg/ml.
# 950 μl of EDTA solution were added to 50 μl of ASA solution and the mixture was vortexed. 40 μl of the mixture were pipetted in the experiment test tubes to stop further prostaglandin production.
# Platelet-rich plasma (PRP) was prepared from male Sprague-Dawley rats (300-325 gm). The blood was collected by heart puncture and added to 3.8% citrate solution, final volume 9:1, blood:citrate. The blood was centrifuged at 120×g (750 rpm) for 15 minutes at 4° C. to obtain PRP. The rest of the blood was spun at 1800×g (3000 rpm) for 10 minutes to get the PPP which was used later for dilution of the PRP to achieve the final desired platelet concentration of 1×10^9 platelets/ml. 400 μl of PRP, containing 4×10^8 platelets, were pipetted in polypropylene tubes and the following treatment groups were studied:
# 1--Baseline (-ve control) tubes: to measure the baseline production of Thromboxane B2 (TX B2) by platelets during the time of the experiment, 60 μl of saline were added and left for 10 minutes in a shaking water bath at 37° C.
# 2--Control (+ve control) tubes: 20 μl of arachidonic acid (AA) solution were added to achieve a final concentration of 1.5 mM and the tubes were incubated […].
# 3--ASA and/or SAM treatment tubes: 20 μl of ASA (final conc. 130 μg/ml), 20 μl of SAM solution (final conc. 40 μg/ml), 20 μl of ASA/SAM(L) solution (final conc. 130/40 μg/ml) or 20 μl of ASA/SAM(H) solution (final conc. 130/120 μg/ml) were added to PRP together with 20 μl of saline for 10 minutes, then 20 μl of AA solution were added for additional 10 minutes.
# 4--ASA/SA treatment: 20 μl of ASA/SA solution (final conc. 130/130 μg/ml) and 20 μl of saline were added to the tubes for 10 minutes before AA was added for further 10 minutes.
# 5--ASA/SA/SAM treatment: 20 μl of ASA/SA solution (130/130 μg/ml as final conc.) and 20 μl of […] in low (L) or high (H) concentrations (40 or 120 μg/ml, final conc.) were added simultaneously to PRP followed 10 minutes later by AA.
# 6--SAM/SA treatment: 20 μl of SAM solution (final conc. 40 μg/ml) and 20 μl of SA solution (final conc. 130 μg/ml) were added followed 10 minutes later by AA for additional 10 minutes.
# Also, the effect of SAM when administered first to the platelets followed 10 minutes later by ASA was studied to know whether the effect of SAM is time dependent or not.
# During the treatment, all the tubes were incubated at 37° C. in a shaking water bath. Ten minutes after the addition of AA, or saline (for the control tubes), the experiment was ended by addition of 40 μl of EDTA/ASA solution. The tubes were immediately centrifuged at 1800×g for 15 minutes at 4° C. to precipitate the platelets and 100 μl of the supernatant were obtained for estimation of their content of TX B2 using a specific radioimmunoassay (Amersham International) (vide infra).
# Radioimmunoassay Procedure for Measurement of Thromboxane B2 and 6-keto PG F1alpha […]
# [1] = cited from earlier work
# [2] = test system: lyso-PAF:acetyl-CoA acetyltransferase; conditions: cited from earlier work
# cyclooxygenase = conditions: in vitro; cited from earlier work
compound,measurement,setting,value
"O=C(O)c1ccccc1O [SA, salicylic acid]",Antagonism of ASA effect by SA,platelet cyclooxygenase,~ 70%
same,Pharmacokinetics linearity,[1]; humans and rats,non-linear and dose-dependent
same,Distribution and plasma albumin binding,"[1]; rat, in vivo",concentration-dependent distribution and plasma albumin binding
same,Effect on lyso-PAF:acetyl-CoA acetyltransferase,[2],inhibitory effect
same,Effect on cyclooxygenase,cyclooxygenase,does not have the capacity to inhibit cyclooxygenase
